# Reference: patent US20240058387A1, “CULTURE MEDIUM COMPOSITION FOR AMPLIFYING AND MAINTAINING SELF-RENEWAL CAPACITY AND DIFFERENTIATION POTENTIAL OF HSCS AND APPLICATION THEREOF” (EDIGENE (GUANGZHOU) INC., priority 2020, published 2024)
# How the values were obtained:
# [1] = test system: umbilical cord blood-derived CD34+ cells; assay: In vivo transplantation of in vitro cultured CD34+ cells into irradiated immunodeficient NPG mice; settings: FIG. 8A, cells cultured with 1 μM AG1296 (SR1 5 μM), week 18 after transplantation
# Procedure: On the umbilical cord blood-derived CD34+ cells sorted in Example 1, the effects of the screened small molecule inhibitor AG1296 and the inhibitor SR1 reported in the literature on the in vivo hematopoietic system reconstitution ability was compared.
# Preparation of cell medium: SFEM II+100 ng/ml Flt-3L+100 ng/ml SCF+100 ng/ml TPO+20 ng/ml IL-6+1% bispecific antibody. Cat. numbers of the medium, growth factor, bispecific antibody, etc. were as described in Example 2. According to the groups set in Table 4, different small molecule inhibitors were added.
# The prepared cell medium was added to a 24-well plate, 950 μl per well, and placing it in a carbon dioxide incubator to preheat; using SFEMII+100 ng/ml Flt-3L+100 ng/ml SCF+100 ng/ml TPO+20 ng/ml IL-6+1% bispecific antibody to resuspend the spare umbilical cord blood-derived HSCs of Example 1. The medium volume required to resuspend the cells was calculated according to 50 μl of cell suspension was added to each well, and 0.28*10^5/ml cell density per well was; taking out the preheated medium from the incubator, adding 50 μl of resuspended cell suspension to each well, mixing well, observing the cell state under a microscope, and then putting them into the incubator for culture. […]
# The proportions of human CD45, human CD19, human CD3, human CD33 and human CD56 in mouse bone marrow cells were detected by flow cytometry. […]
# [2] = test system: umbilical cord blood-derived CD34+ cells; assay: Flow cytometry detection of HSC stemness markers (LT-HSCs CD34+CD45+CD90+CD45RA-CD38-) after small molecule induction; type: cell-based, human
# Procedure: According to the solubility and required solvent indicated in the instructions of the small molecule inhibitor (see Table 1 for the Cat. number of the small molecule inhibitor), the preparation of the small molecule inhibitor stock solution was carried out. Next, the hematopoietic stem cell medium was prepared: SFEM II medium (stem cell, Cat. number: 09655)+50 ng/ml growth factor Flt-3L (PeProtech, Cat. number: 300-100UG)+50 ng/ml growth factor SCF (PeProtech, Cat. number): 300-07-100UG)+50 ng/ml growth factor TPO (PeProtech, Cat. number: 300-18-100UG)+10 ng/ml interleukin IL-6 (PeProtech, Cat. number: 200-06-20UG)+1% bispecific antibody (HyClone, Cat. No.: sv30010). According to the set concentration gradient of the small molecule inhibitor, the stock solution and the basal medium were used to prepare the medium containing different concentrations of the small molecule inhibitor.
# First, the prepared medium was added to a 24-well plate (Corning, Cat. number: 3473), 950 μl per well, and placing it in a carbon dioxide incubator (Thermo, model: 3111) to preheat; resuspending the spare umbilical cord Blood-derived HSCs of Example 1 with SFEM 11+50 ng/ml Flt-3L+50 ng/ml SCF+50 ng/ml TPO+10 ng/ml IL-6+1% bispecific antibody, calculating the medium volume to be added according to 50 μl cell suspension per well and 2*10^5/m1 cell density per well. For example, when the final volume of the cell culture solution per well was 1 ml, the total number of cells per well was 2*10^5 cells calculated according to the cell density per well, and the density of the […] of cell suspension supplemented to each well is 4*10^6/ml. The density of the spare HSCs of Example 1 was adjusted to the calculated density of the cell suspension, and adding it; taking out the preheated medium from the incubator, adding 50 μl of the cell suspension to each well, and after mixing, using the microscope (OLYMPUS, model: CKX53) to observe the cells state, and then putting it into an incubator for culturing.
# 20 μL of cells cultured for 6-8 days (D6-D8) in the above Example 2 was sampled for counting, taking out a suspension of 2*10^5 cells into a 1.5 ml centrifuge tube according to the counting result; centrifuging at 400 g for 5 min, discarding the supernatant. 100 μL of PBS (phosphate-buffered saline solution, HyClone, Cat. number: SH30256.01) containing 1% HSA (human serum albumin, Guangdong Shuanglin, Cat. number: S10970069) was taken, resuspending the cells, and vortexing to mix well for later use. Then, the cell sample in the control was collected. The number of cells and the collection method were the same as those of the sample cells to be tested. The controls were setting as the NC group and the ISO group respectively, selecting the cells from any sample or mixed cells of the samples to be tested in this batch of experiments, depending on the number of cells.
# According to Table 3 above, the antibodies were added to the cell suspensions of the above-mentioned cell samples to be tested and control cell samples according to groups; vortexing to mix and incubating at room temperature for 15 min in the dark. After 15-min incubation, 1 ml of PBS containing 1% HSA was added to each test sample, mixing well, centrifuging at 400 g for 5 min at room temperature. After centrifugation, the supernatant was discarded, and the cells were resuspended in 100 μL of PBS containing 1% HSA for each test sample. Samples were stored at room temperature away from light before testing. […]
structure (smiles),measurement,setting,value
COc1cc2ncc(-c3ccccc3)nc2cc1OC [AG1296],bone marrow transplantation efficiency (proportion of human CD45+ cells in mouse bone marrow cells),[1],significantly higher than that of the Mock group and the SR1 group
same,"expansion fold of the ratio of LT-HSCs (CD34+CD45+CD90+CD45RA-CD38-), test group/control group (Mock)","[2]; FIG. 2, 6-8 days induction, 3 concentrations per inhibitor",more than 3 times
same,"maintaining the CD3+, CD34+CD90+, CD34+CD90+CD45RA- cell ratios (proportion in total cells)","[2]; FIG. 3A, 1 μM, 5 μM and 10 μM, 6 days, vs Mock",superior to the Mock group
same,proportion of LT-HSC relative to AG1296 (500 nM),"[2]; FIG. 4A, 1 μM, 6 days",about 2 times
same,proportion of LT-HSC relative to Mock group and AG1296 (100 nM) group,"[2]; FIG. 4A, 1 μM, 6 days",about 3 times
same,"maintaining the ratio of CD34+, CD34+CD90+, and CD34+CD90+CD45RA- cells","[2]; FIG. 4A, 1 μM, 6 days, vs Mock, 100 nM and 500 nM",better than Mock group and at the concentrations of 100 nM and 500 nM
